For this test, the system named is HEK293T cells carrying the ATF4 luciferase reporter. Description: ATF4-Luc assay (in vitro model of VWMD). Type of test: cell-based. The settings on record: Homo sapiens, HEK-293T, 1 μg/mL tunicamycin, 7 hours, One Glo luminescence. The method, then:
In order to test exemplary compounds of the invention in a cellular context, a stable VWMD cell line was first constructed. The ATF4 reporter was prepared by fusing the human full-length ATF4 5′-UTR (NCBI Accession No. BC022088.2) in front of the firefly luciferase (FLuc) coding sequence lacking the initiator methionine as described in Sidrauski et al (eLife 2013). The construct was used to produce recombinant retroviruses using standard methods and the resulting viral supernatant was used to transduce HEK293T cells, which were then subsequently selected with puromycin to generate a stable cell line.
HEK293T cells carrying the ATF4 luciferase reporter were plated on polylysine coated 384-well plates (Greiner Bio-one) at 30,000 cells per well. Cells were treated the next day with 1 μg/mL tunicamycin and 200 nM of a compound of Formula (I) for 7 hours. Luminescence was measured using One Glo (Promega) as specified by the manufacturer. Cells were maintained in DMEM with L-glutamine supplemented with 10% heat-inactivated FBS (Gibco) and Antibiotic-Antimycotic solution (Gibco).
Table 2 below summarizes the EC50 data obtained using the ATF4-Luc assay for exemplary compounds of the invention.

The term EC50 denotes the midpoint of the concentration-response curve. Regarding `O=C(COc1ccc(Cl)c(F)c1)NC12CC(c3nnc(COc4ccc(Cl)cc4)[nH]3)(C1)C2` [Compound 132, 2-(4-chloro-3-fluorophenoxy)-N-(3-{5-[(4-chlorophenoxy)methyl]-4H-1,2,4-triazol-3-yl}bicyclo[1.1.1]pentan-1-yl)acetamide], the EC50 is < 50 nM. Consider `CCc1nc(C)ccc1OCc1nnc(C23CC(NC(=O)COc4ccc(Cl)c(F)c4)(C2)C3)o1` [Compound 153, 2-(4-chloro-3-fluorophenoxy)-N-[3-(5-{[(2-ethyl-6-methylpyridin-3-yl)oxy]methyl}-1,3,4-oxadiazol-2-yl)bicyclo[1.1.1]pentan-1-yl]acetamide], for which the EC50 is > 2000 nM. For the molecule `COc1ccccc1Oc1nnc(C23CC(NC(=O)COc4ccc(Cl)c(F)c4)(C2)C3)o1` [Compound 124, 2-(4-chloro-3-fluorophenoxy)-N-{3-[5-(2-methoxyphenoxy)-1,3,4-oxadiazol-2-yl]bicyclo[1.1.1]pentan-1-yl}acetamide], the EC50 is > 2000 nM. Under `O=C(COc1ccc(Cl)c(F)c1)NC12CC(c3nnc(COc4cncc(C(F)(F)F)c4)o3)(C1)C2` [Compound 122, 2-(4-chloro-3-fluorophenoxy)-N-{3-[5-({[5-(trifluoromethyl)pyridin-3-yl]oxy}methyl)-1,3,4-oxadiazol-2-yl]bicyclo[1.1.1]pentan-1-yl}acetamide] stands 50 to 250 nM; under `O=C(COc1ccc(Cl)c(F)c1)NC12CC(c3nc(COc4ccc(C(F)(F)F)nc4)no3)(C1)C2` [Compound 161, 2-(4-chloro-3-fluorophenoxy)-N-{3-[3-({[6-(trifluoromethyl)pyridin-3-yl]oxy}methyl)-1,2,4-oxadiazol-5-yl]bicyclo[1.1.1]pentan-1-yl}acetamide], 50 to 250 nM. For `Cc1cncc(OCc2nnc(C34CC(NC(=O)COc5ccc(Cl)c(F)c5)(C3)C4)o2)c1` [Compound 143, 2-(4-chloro-3-fluorophenoxy)-N-[3-(5-{[(5-methylpyridin-3-yl)oxy]methyl}-1,3,4-oxadiazol-2-yl)bicyclo[1.1.1]pentan-1-yl]acetamide], the EC50 was in the range of 250 to 1000 nM. Under `O=C(COc1ccc(Cl)c(F)c1)NC12CC(c3nc(COc4cnc(C(F)(F)F)c(Cl)c4)no3)(C1)C2` [Compound 162, 2-(4-chloro-3-fluorophenoxy)-N-{3-[3-({[5-chloro-6-(trifluoromethyl)pyridin-3-yl]oxy}methyl)-1,2,4-oxadiazol-5-yl]bicyclo[1.1.1]pentan-1-yl}acetamide] stands 50 to 250 nM.

In the case of `O=C(COc1ccc(Cl)c(F)c1)NC12CC(c3nnc(COc4ccc(C5CC5)nc4)o3)(C1)C2` [Compound 150, 2-(4-chloro-3-fluorophenoxy)-N-[3-(5-{[(6-cyclopropylpyridin-3-yl)oxy]methyl}-1,3,4-oxadiazol-2-yl)bicyclo[1.1.1]pentan-1-yl]acetamide], the EC50 fell in the range of 1000 to 2000 nM. As for `O=C(COc1ccc(Cl)c(F)c1)NC12CC(c3nc(COc4ccc(C(F)(F)F)nc4)c[nH]3)(C1)C2` [Compound 169, 2-(4-chloro-3-fluorophenoxy)-N-{3-[4-({[6-(trifluoromethyl)pyridin-3-yl]oxy}methyl)-1H-imidazol-2-yl]bicyclo[1.1.1]pentan-1-yl}acetamide], the EC50 is > 2000 nM.

For `O=C(COc1ccc(Cl)c(F)c1)NC12CC(c3nnc(COc4ccc(C(F)(F)F)nc4)o3)(C1)C2` [Compound 141, 2-(4-chloro-3-fluorophenoxy)-N-{3-[5-({[6-(trifluoromethyl)pyridin-3-yl]oxy}methyl)-1,3,4-oxadiazol-2-yl]bicyclo[1.1.1]pentan-1-yl}acetamide], the EC50 lay in the range of 50 to 250 nM. Under `COc1ccc(Oc2nnc(C34CC(NC(=O)COc5ccc(Cl)c(F)c5)(C3)C4)o2)cc1` [Compound 125, 2-(4-chloro-3-fluorophenoxy)-N-{3-[5-(4-methoxyphenoxy)-1,3,4-oxadiazol-2-yl]bicyclo[1.1.1]pentan-1-yl}acetamide] stands 250 to 1000 nM; under `Cc1ccc(Oc2nnc(C34CC(NC(=O)COc5ccc(Cl)c(F)c5)(C3)C4)o2)cc1` [Compound 123, 2-(4-chloro-3-fluorophenoxy)-N-{3-[5-(4-methylphenoxy)-1,3,4-oxadiazol-2-yl]bicyclo[1.1.1]pentan-1-yl}acetamide], 50 to 250 nM; under `O=C(COc1ccc(Cl)cc1)NC12CC(c3nnc(COc4ccc(Cl)cc4)o3)(C1)C2` [Compound 100, 2-(4-chlorophenoxy)-N-(3-{5-[(4-chlorophenoxy)methyl]-1,3,4-oxadiazol-2-yl}bicyclo[1.1.1]pentan-1-yl)acetamide], 50 to 250 nM. For the molecule `O=C(COc1ccc(Cl)c(F)c1)NC12CC(c3nnc(Oc4ccccc4F)o3)(C1)C2` [Compound 137, 2-(4-chloro-3-fluorophenoxy)-N-{3-[5-(2-fluorophenoxy)-1,3,4-oxadiazol-2-yl]bicyclo[1.1.1]pentan-1-yl}acetamide], the EC50 was 250 to 1000 nM. Take `O=C(COc1ccc(Cl)c(F)c1)NC12CC(c3nc(COc4ccnc(C(F)(F)F)c4)no3)(C1)C2` [Compound 160, 2-(4-chloro-3-fluorophenoxy)-N-{3-[3-({[2-(trifluoromethyl)pyridin-4-yl]oxy}methyl)-1,2,4-oxadiazol-5-yl]bicyclo[1.1.1]pentan-1-yl}acetamide]: the EC50 lay within 50 to 250 nM. Take `O=C(COc1ccc(Cl)c(F)c1)NC12CC(c3nnc(COc4cncc(Cl)c4)o3)(C1)C2` [Compound 148, 2-(4-chloro-3-fluorophenoxy)-N-[3-(5-{[(5-chloropyridin-3-yl)oxy]methyl}-1,3,4-oxadiazol-2-yl)bicyclo[1.1.1]pentan-1-yl]acetamide]: the EC50 is 50 to 250 nM. Turning to `N#Cc1cncc(OCc2nnc(C34CC(NC(=O)COc5ccc(Cl)c(F)c5)(C3)C4)o2)c1` [Compound 144, 2-(4-chloro-3-fluorophenoxy)-N-[3-(5-{[(5-cyanopyridin-3-yl)oxy]methyl}-1,3,4-oxadiazol-2-yl)bicyclo[1.1.1]pentan-1-yl]acetamide], the EC50 is > 2000 nM. Under `COc1ccc(Oc2nnc(C34CC(NC(=O)COc5ccc(Cl)c(F)c5)(C3)C4)o2)cn1` [Compound 120, 2-(4-chloro-3-fluorophenoxy)-N-(3-{5-[(6-methoxypyridin-3-yl)oxy]-1,3,4-oxadiazol-2-yl}bicyclo[1.1.1]pentan-1-yl)acetamide] stands 50 to 250 nM; under `N#Cc1cccc(Oc2nnc(C34CC(NC(=O)COc5ccc(Cl)c(F)c5)(C3)C4)o2)c1` [Compound 129, 2-(4-chloro-3-fluorophenoxy)-N-{3-[5-(3-cyanophenoxy)-1,3,4-oxadiazol-2-yl]bicyclo[1.1.1]pentan-1-yl}acetamide], 50 to 250 nM. With `O=C(COc1ccc2c(c1)OC(F)(F)O2)NC12CC(c3nnc(COc4ccc(Cl)c(F)c4)o3)(C1)C2` [Compound 133, N-(3-{5-[(4-chloro-3-fluorophenoxy)methyl]-1,3,4-oxadiazol-2-yl}bicyclo-[1.1.1]pentan-1-yl)-2-[(2,2-difluoro-2H-1,3-benzodioxol-5-yl)oxy]acetamide], the EC50 was < 50 nM. Under `COc1ccc(OCc2nnc(C34CC(NC(=O)COc5ccc(Cl)c(F)c5)(C3)C4)o2)c(C)n1` [Compound 151, 2-(4-chloro-3-fluorophenoxy)-N-[3-(5-{[(6-methoxy-2-methylpyridin-3-yl)oxy]methyl}-1,3,4-oxadiazol-2-yl)bicyclo[1.1.1]pentan-1-yl]acetamide] stands 1000 to 2000 nM; under `O=C(COc1ccc(Cl)c(F)c1)NC12CC(c3nnc(Oc4ccc(C5CC5)nc4)o3)(C1)C2` [Compound 121, 2-(4-chloro-3-fluorophenoxy)-N-(3-{5-[(6-cyclopropylpyridin-3-yl)oxy]-1,3,4-oxadiazol-2-yl}bicyclo[1.1.1]pentan-1-yl)acetamide], 50 to 250 nM.

Consider `O=C(COc1ccc(Cl)c(F)c1)NC12CC(c3noc(COc4ccc(Cl)cc4)n3)(C1)C2` [Compound 113, 2-(4-chloro-3-fluorophenoxy)-N-(3-{5-[(4-chlorophenoxy)methyl]-1,2,4-oxadiazol-3-yl}bicyclo[1.1.1]pentan-1-yl)acetamide], for which the EC50 was < 50 nM. Under `O=C(COc1ccc(Cl)c(F)c1)NC12CC(c3nnc(COc4cnc5cc[nH]c5c4)o3)(C1)C2` [Compound 149, 2-(4-chloro-3-fluorophenoxy)-N-[3-(5-{[(1H-pyrrolo[3,2-b]pyridin-6-yl)oxy]methyl}-1,3,4-oxadiazol-2-yl)bicyclo[1.1.1]pentan-1-yl]acetamide] stands 1000 to 2000 nM; under `O=C(COc1cccc(F)c1)NC12CC(c3nc(COc4ccc(Cl)cc4)no3)(C1)C2` [Compound 107, N-(3-{3-[(4-chlorophenoxy)methyl]-1,2,4-oxadiazol-5-yl}bicyclo[1.1.1]pentan-1-yl)-2-(3-fluorophenoxy)acetamide], 250 to 1000 nM. As to `O=C(COc1ccc(F)cc1)NC12CC(c3nc(COc4ccc(Cl)cc4)no3)(C1)C2` [Compound 108, N-(3-{3-[(4-chlorophenoxy)methyl]-1,2,4-oxadiazol-5-yl}bicyclo[1.1.1]pentan-1-yl)-2-(4-fluorophenoxy)acetamide], the concentration for a half-maximal effect (EC50) was in the range of 250 to 1000 nM. Under `Cc1ccccc1Oc1nnc(C23CC(NC(=O)COc4ccc(Cl)c(F)c4)(C2)C3)o1` [Compound 134, 2-(4-chloro-3-fluorophenoxy)-N-{3-[5-(2-methylphenoxy)-1,3,4-oxadiazol-2-yl]bicyclo[1.1.1]pentan-1-yl}acetamide] stands 250 to 1000 nM.

The values are drawn from patent publication US10864196B2, “Modulators of the integrated stress pathway” (Calico Life Sciences LLC, priority 2016, dated 2020).
